Patent US10344025B2, “GLS1 inhibitors for treating disease” (Board of Regents, The University of Texas System, priority 2014, dated 2019)
pEC50, pIC50: −log10 of the molar value.

Columns and labels:
[1] = target: purified recombinant human GAC (GLS1) (Homo sapiens (Human), UniProt O94925); experiment: GLS1 Enzymatic Activity Assay (dual-coupled enzymatic assay, resorufin/Amplex UltraRed readout); format: biochemical;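 further: glutamate from GAC coupled via glutamate oxidase and peroxidase to resorufin, read as fluorescence (ex 530, em 590 nm) kinetically or at 20 min, four-parameter logistic IC50 fit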
purified recombinant human GAC (GLS1), sequence (O94925 other isoform, or with tags, fused parts or gaps): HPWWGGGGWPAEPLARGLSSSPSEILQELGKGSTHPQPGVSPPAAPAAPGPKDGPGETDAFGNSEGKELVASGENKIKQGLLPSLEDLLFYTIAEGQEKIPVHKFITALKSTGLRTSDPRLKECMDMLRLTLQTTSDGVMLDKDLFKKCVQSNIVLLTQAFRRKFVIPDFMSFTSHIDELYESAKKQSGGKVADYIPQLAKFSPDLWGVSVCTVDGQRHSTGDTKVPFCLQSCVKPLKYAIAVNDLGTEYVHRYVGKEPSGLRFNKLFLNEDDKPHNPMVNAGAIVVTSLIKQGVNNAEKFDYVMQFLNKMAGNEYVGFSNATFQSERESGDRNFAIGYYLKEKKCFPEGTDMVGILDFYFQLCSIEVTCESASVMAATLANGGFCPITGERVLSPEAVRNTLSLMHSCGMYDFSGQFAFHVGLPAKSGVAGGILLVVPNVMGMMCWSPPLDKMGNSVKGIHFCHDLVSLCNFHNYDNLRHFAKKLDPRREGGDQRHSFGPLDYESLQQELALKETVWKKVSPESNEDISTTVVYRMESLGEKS

[2] = test system: A549 cells; experiment: Proliferation Assay (A549 viability, Cell Titer Fluor, 72 hours); format: cell-based; conditions: Homo sapiens, A549, 72 h
In short: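 Cell Titer Fluor fluorescence after 72 h compound treatment (0.5% DMSO, 37 °C, 5% CO2) of A549 cells plated 24 h earlier at 1000/well. Four-parameter logistic fitting gave IC50.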

Compound | pIC50 [1] | pEC50 [2]
O=C(Cc1cccc(OC(F)(F)F)c1)Nc1ccc(CCCCc2nnc(C(=O)NCC3COC3)s2)nn1 [Example 33, N-(oxetan-3-ylmethyl)-5-[4-(6-{2-[3-(trifluoromethoxy)phenyl]acetamido}pyridazin-3-yl)butyl]-1,3,4-thiadiazole-2-carboxamide] | > 7.00 | > 7.00
O=C(NCc1cccc(F)c1)c1cn(CCCCn2cc(C(=O)NCc3cc(C(F)(F)F)ccn3)nn2)nn1 [Example 112, 1-[4-(4-{[(3-fluorophenyl)methyl]carbamoyl}-1H-1,2,3-triazol-1-yl)butyl]-N-{[4-(trifluoromethyl)pyridin-2-yl]methyl}-1H-1,2,3-triazole-4-carboxamide] | 6.30 to 7.00 | 6.30 to 7.00
CC(C)CC(=O)NCc1cn(CCCCn2cc(C(=O)NCc3cccc(OC(F)(F)F)c3)nn2)nn1 [Example 55, l-(4-{4-[(3-methylbutanamido)methyl]-1H-1,2,3-triazol-1-yl}butyl)-N-{[3-(trifluoromethoxy)phenyl]methyl}-1H-1,2,3-triazole-4-carboxamide] | 6.30 to 7.00 | 5.30 to 6.30
O=C(NCc1cccc(OC(F)(F)F)c1)c1cn(CCCCn2cc(C(=O)NCc3cc(C(F)(F)F)ccn3)nn2)nn1 [Example 83, N-{[3-(trifluoromethoxy)phenyl]methyl}-1-{4-[4-({[4-(trifluoromethyl)pyridin-2-yl]methyl}carbamoyl)-1H-1,2,3-triazol-1-yl]butyl}-1H-1,2,3-triazole-4-carboxamide] | > 7.00 | > 7.00
COc1cccc(CNC(=O)c2cn(CC(F)CCc3nnc(NC(=O)Cc4cc(OC(F)(F)F)ccc4F)s3)nn2)n1 (stereo not shown) [Example 206, 1-(2-fluoro-4-(5-(2-(2-fluoro-5-(trifluoromethoxy)phenyl)acetamido)-1,3,4-thiadiazol-2-yl)butyl)-N-((6-methoxypyridin-2-yl)methyl)-1H-1,2,3-triazole-4-carboxamide] | > 7.00 | > 7.00
O=C(NCc1cccc(OC(F)(F)F)c1)c1cn(CCCCc2nnc(C(=O)NCc3ccc(C(F)(F)F)nc3)s2)nn1 [Example 78, 5-{4-[4-({[3-(trifluoromethoxy)phenyl]methyl}carbamoyl)-1H-1,2,3-triazol-1-yl]butyl}-N-{[6-(trifluoromethyl)pyridin-3-yl]methyl}-1,3,4-thiadiazole-2-carboxamide] | > 7.00 | > 7.00
O=C(NCc1cc(C(F)(F)F)ccn1)c1cn(CCCCn2cc(C(=O)NCc3cc(F)ccc3Cl)nn2)nn1 [Example 107, 1-[4-(4-{[(2-chloro-5-fluorophenyl)methyl]carbamoyl}-1H-1,2,3-triazol-1-yl)butyl]-N-{[4-(trifluoromethyl)pyridin-2-yl]methyl}-1H-1,2,3-triazole-4-carboxamide] | > 7.00 | > 7.00

Results, then the molecule that gave them:

pIC50 [1] | pEC50 [2] | Compound
6.30 to 7.00 | 6.30 to 7.00 | CNC(=O)c1cn(CCC(F)Cn2cc(C(=O)NCc3cc(C(F)(F)F)ccn3)nn2)nn1 (stereo not shown) [Example 475, 1-(3-fluoro-4-(4-((4-(trifluoromethyl)pyridin-2-yl)methylcarbamoyl)-1H-1,2,3-triazol-1-yl)butyl)-N-methyl-1H-1,2,3-triazole-4-carboxamide]
> 7.00 | 6.30 to 7.00 | CNC(=O)c1cn(CCC(F)Cn2cc(NC(=O)Cc3cc(OC(F)(F)F)ccc3F)nn2)nn1 (stereo not shown) [Example 525, 1-[3-fluoro-4-(4-{2-[2-fluoro-5-(trifluoromethoxy)phenyl]acetamido}-1H-1,2,3-triazol-1-yl)butyl]-N-methyl-1H-1,2,3-triazole-4-carboxamide]
> 7.00 | 6.30 to 7.00 | CNC(=O)c1cn(CCC(F)Cn2cc(NC(=O)Cc3cccc(OC(F)(F)F)c3)nn2)nn1 (stereo not shown) [Example 524, 1-[3-fluoro-4-(4-{2-[3-(trifluoromethoxy)phenyl]acetamido}-1H-1,2,3-triazol-1-yl)butyl]-N-methyl-1H-1,2,3-triazole-4-carboxamide]
> 7.00 | 6.30 to 7.00 | O=C(Cc1cc(OC(F)(F)F)ccc1F)Nc1ccc(CCCCn2cc(C(=O)NC3COC3)nn2)nn1 [Example 581, 1-(4-(6-(2-(2-fluoro-5-(trifluoromethoxy)phenyl)acetamido)pyridazin-3-yl)butyl)-N-(oxetan-3-yl)-1H-1,2,3-triazole-4-carboxamide]
> 7.00 | 6.30 to 7.00 | O=C(CN1CC(F)(F)C1)Nc1cn(CC(F)CCn2cc(C(=O)NCc3cccc(OC(F)(F)F)c3)nn2)nn1 (stereo not shown) [Example 391, 1-(4-{4-[2-(3,3-difluoroazetidin-1-yl)acetamido]-1H-1,2,3-triazol-1-yl}-3-fluorobutyl)-N-{[3-(trifluoromethoxy)phenyl]methyl}-1H-1,2,3-triazole-4-carboxamide]
> 7.00 | 6.30 to 7.00 | CNC(=O)c1nnc(CCC(F)Cn2cc(C(=O)NCc3cc(OC(F)(F)F)ccc3F)nn2)s1 (stereo not shown) [Example 555, 5-{3-fluoro-4-[4-({[2-fluoro-5-(trifluoromethoxy)phenyl]methyl}carbamoyl)-1H-1,2,3-triazol-1-yl]butyl}-N-methyl-1,3,4-thiadiazole-2-carboxamide]
> 7.00 | > 7.00 | O=C(Cc1cccc(F)n1)Nc1nnc(CCC(F)Cn2cc(C(=O)NCc3cc(OC(F)(F)F)ccc3F)nn2)s1 (stereo not shown) [Example 592, 1-(2-fluoro-4-(5-(2-(6-fluoropyridin-2-yl)acetamido)-1,3,4-thiadiazol-2-yl)butyl)-N-(2-fluoro-5-(trifluoromethoxy)benzyl)-1H-1,2,3-triazole-4-carboxamide]
> 7.00 | 6.30 to 7.00 | N#CCNC(=O)c1cn(CC(F)CCc2nnc(NC(=O)Cc3cccc(OC(F)(F)F)c3)s2)nn1 (stereo not shown) [Example 505, N-(cyanomethyl)-1-[2-fluoro-4-(5-{2-[3-(trifluoromethoxy)phenyl]acetamido}-1,3,4-thiadiazol-2-yl)butyl]-1H-1,2,3-triazole-4-carboxamide]
6.30 to 7.00 | 5.30 to 6.30 | O=C(CN1CC(F)C1)Nc1cn(CCCCn2cc(C(=O)NCc3cccc(OC(F)(F)F)c3)nn2)nn1 [Example 329, 1-(4-{4-[2-(3-fluoroazetidin-1-yl)acetamido]-1H-1,2,3-triazol-1-yl}butyl)-N-{[3-(trifluoromethoxy)phenyl]methyl}-1H-1,2,3-triazole-4-carboxamide]
> 7.00 | > 7.00 | O=C(NCc1cc(OC(F)(F)F)ccc1F)c1cn(CCC(F)Cn2cc(C(=O)NCc3ccc(C(F)(F)F)nc3)nn2)nn1 (stereo not shown) [Example 424, 1-{2-fluoro-4-[4-({[2-fluoro-5-(trifluoromethoxy)phenyl]methyl}carbamoyl)-1H-1,2,3-triazol-1-yl]butyl}-N-{[6-(trifluoromethyl)pyridin-3-yl]methyl}-1H-1,2,3-triazole-4-carboxamide]
